Test results from patent US9079888B2, “Compounds as histamine H3 receptor ligands” (Suven Life Sciences Limited, priority 2011, dated 2015).
Structures can show the parent of a compound that is named as a salt. Blank lines part the entries; values can stand above or below the molecule they belong to.

Key:
[1] = biological target: Human or Rat Histamine H3 Receptor; test: Binding assay for human or rat Histamine H3 receptor ([3H] R-α-methylhistamine displacement); conditions: radioligand [3H] R-α-methylhistamine 3.0 nM; receptor source rat brain frontal cortex or recombinant human cDNA in CHO cells (table does not say which)
Procedure: The reaction was terminated by rapid vacuum filtration onto the glass fiber filters. Radioactivity trapped onto the filters was determined and compared to the control values in order to ascertain any interactions of the test compound(s) with either cloned human or rat receptor binding site.

[2] = Rodent Pharmacokinetic Study
Procedure: Male Wistar rats (230-280 grams) obtained from NIN (National Institute of Nutrition, Hyderabad, India) were used as an experimental animal. Three animals were housed in each cage. Animals were kept fasted over night and maintained on a 12 hours light/dark cycle. Three rats were dosed New chemical entity (NCE) orally (3 or 10 mg/kg) and intravenously (1 or 5 mg/kg) on day 0 and day 2.
At each time point blood was collected by jugular vein. Blood was stored at 2-8° C. until analysis. The concentrations of the NCE compound in blood were determined using LC-MS/MS method. Schedule time points: Pre dose 0.08, 0.25, 0.5, 1, 2, 4, 6, 8 and 24 hours after dosing (n=3). The NCE compounds were quantified in blood by partially validated LC-MS/MS method using acetonitrile precipitation technique. […] Study samples were analyzed using calibration samples in the batch and quality control samples spread across the batch.
Pharmacokinetic parameters were calculated by non-compartmental model using software WinNonlin version 5.0.1.

Male Wister rats = test: Object Recognition Task Model; format: in vivo; conditions: rat; for Exploration time mean ± S.E.M, Familiar object / Exploration time mean ± S.E.M, Novel object: choice trial T2 24 h after T1
Procedure: The cognition enhancing properties of compounds of this invention were estimated by using this model.
Male Wister rats (230-280 grams) obtained from N. I. N. (National Institute of Nutrition, Hyderabad, India) was used as experimental animals. Four animals were housed in each cage. Animals were kept on 20% food deprivation before one day and given water ad libitum throughout the experiment and maintained on a 12 hours light/dark cycle. Also the rats were habituated to individual arenas for 1 hour in the absence of any objects.
One group of 12 rats received vehicle (1 mL/Kg) orally and another set of animals received compound of the formula (I) either orally or i.p., before one hour of the familiar (T1) and choice trial (T2).
The experiment was carried out in a 50×50×50 cm open field made up of acrylic. In the familiarization phase, (T1), the rats were placed individually in the open field for 3 minutes, in which two identical objects (plastic bottles, 12.5 cm height×5.5 cm diameter) covered in yellow masking tape alone (a1 and a2) were positioned in two adjacent corners, 10 cms from the walls. After 24 hours of the (T1) trial for long-term memory test, the same rats were placed in the same arena as they were placed in T1 trial. Choice phase (T2) rats were allowed to explore the open field for 3 minutes in presence of one familiar object (a3) and one novel object (b) (Amber color glass bottle, 12 cm high and 5 cm in diameter). Familiar objects presented similar textures, colors and sizes. During the T1 and T2 trial, explorations of each object (defined as sniffing, licking, chewing or having moving vibrissae whilst directing the nose towards the object at a distance of less than 1 cm) were recorded separately by stopwatch. Sitting on an object was not regarded as exploratory activity, however, it was rarely observed.
T1 is the total time spent exploring the familiar objects (a1+a2).
T2 is the total time spent exploring the familiar object and novel object (a3+b).
The object recognition test was performed as described by Ennaceur, A., Delacour, J., 1988, A new one-trial test for neurobiological studies of memory in rats—Behavioural data, Behay. Brain Res., 31, 47-59.

[3] = Rodent Brain Penetration Study; format: in vivo, Male Wister rats; conditions: brain / whole blood; Wistar/Male rat, Per Oral, 3 mg/kg, vehicle water; read-out: Brain Penetration Ratio (Cbrain/Cblood)
Procedure: Three animals were housed in each cage. Animals were given water and food ad libitum throughout the experiment, and maintained on a 12 hours light/dark cycle.
New chemical entity (NCE) was dissolved in suitable vehicle and administered orally (3 or 10 mg/kg). […] Blood and brain tissue were collected and brain was homogenized to yield 20% w/v. Blood was stored at 2-8° C. and brain homogenate was frozen at −20° C. until analysis. The concentrations of NCE in blood and brain were quantified using LC-MS/MS method.
Extents of brain-blood ratio were calculated (Cbrian/Cblood)

rats = test: Inhibition of Food Intake; format: in vivo; conditions: rats fasted 18 hours, oral treatment 60 minutes before feed, active dose
Procedure: The anti-obesity properties of compounds of this invention were estimated using this model.
The experiment consisted of 6 days. The rats were adapted to the 18 hours fasting and 6 hours feeding pattern. The animals were housed in a group of three in the cages provided with the fasting grills and was fasted for 18 hours. After 18 hours fasting the rats were separated and placed individually in the cage. Weighed amount of feed was provided to rats for 6 hours and the feed intake at 1 hour, 2 hours, 4 hours and 6 hours was measured.
Again the rats were regrouped and fasted for 18 hours. The above procedure was followed for 5 days. The average cumulative food intake by the rats on the last 3 days was calculated. Animals were randomized on the basis of their previous three days food intake. On the day of experiment the rats were orally treated test compounds or vehicle. After 60 minutes, the feed was provided to the rats and the food intake at 1 hour, 2 hours, 4 hours and 6 hours was measured. The food intake by the rats treated with test compound was compared with the vehicle treated group by using Unpaired Student's t test.

[4] = male, Wistar, rat, whole blood, iv, 1 mg/kg
[5] = male, Wistar, rat, whole blood, po, 3 mg/kg
[6] = male, Wistar, rat, whole blood, po, 10 mg/kg
[7] = Wistar/Male rat, Intravenous, 1 mg/kg, vehicle water, blood
[8] = Wistar/Male rat, Per Oral, 3 mg/kg, vehicle water, blood
[9] = Wistar/Male rat, per oral 3 mg/kg vs intravenous 1 mg/kg

Structure (SMILES): O=C(CN1CCCCC1)Nc1ccc(OC2CCN(C3CCC3)CC2)cc1C(F)(F)F [Example 7, N-[4-(1-Cyclobutylpiperidin-4-yloxy)-2-trifluoromethylphenyl]-2-(piperidin-1-yl) acetamide]
Ki [1]: 14.8 nM

Structure (SMILES): Cc1cc(OC2CCN(C(C)C)CC2)ccc1NC(=O)CN1CCCC1 [Example 10, N-[4-(1-Isopropyl-piperidin-4-yloxy)-2-methylphenyl]-2-(pyrrolidin-1-yl) acetamide]
Ki [1]: 8.4 nM

Structure (SMILES): Cc1cc(OC2CCN(C3CCC3)CC2)ccc1NC(=O)CN1CCCC1 [Example 11, N-[4-(1-Cyclobutylpiperidin-4-yloxy)-2-methylphenyl]-2-(pyrrolidin-1-yl) acetamide]
AUC(0-t) ([2]; male, Wistar, rat, whole blood, iv, 5 mg/kg): 3340 ± 656 ng·h/mL | AUC(0-t) [2, 6]: 1350 ± 569 ng·h/mL | Cmax [2, 6]: 122 ± 55 ng/mL | Tmax [2, 6]: 4 ± 1.76 h | bioavailability [2, 6]: 20 ± 9% | Ki [1]: 1.9 nM

Structure (SMILES): Cc1cc(OC2CCN(C3CCCC3)CC2)ccc1NC(=O)CN1CCCCC1 [Example 12, N-[4-(1-Cyclopentylpiperidin-4-yloxy)-2-methylphenyl]-2-(piperidin-1-yl) acetamide]
Ki [1]: 7.5 nM

Structure (SMILES): Cc1cc(OC2CCN(C3CCC3)CC2)ccc1NC(=O)CN1CCCCC1 [Example 13, N-[4-(1-Cyclobutylpiperidin-4-yloxy)-2-methylphenyl]-2-(piperidin-1-yl) acetamide]
Inhibition of food intake (rats): 30 mg/kg, p.o. | Ki [1]: 3.3 nM

Structure (SMILES): Cc1cc(OC2CCN(C3CCCC3)CC2)ccc1NC(=O)CN1CCC[C@H]1C [Example 15, N-[4-(1-Cyclopentylpiperidin-4-yloxy)-2-methylphenyl]-2-(R-2-methylpyrrolidin-1-yl) acetamide]
Ki [1]: 4 nM

Structure (SMILES): Cc1cc(OC2CCN(C3CCC3)CC2)ccc1NC(=O)CN1CCC[C@H]1C [Example 16, N-[4-(1-Cyclobutylpiperidin-4-yloxy)-2-methylphenyl]-2-(R-2-methylpyrrolidin-1-yl) acetamide]
Inhibition of food intake (rats): ≧30 mg/kg, p.o. | Ki [1]: 2.4 nM

Structure (SMILES): O=C(CN1CCC(O)CC1)Nc1ccc(OC2CCN(C3CCC3)CC2)cc1 [Example 19, N-[4-(1-Cyclobutylpiperidin-4-yloxy)phenyl]-2-(4-hydroxypiperidin-1-yl) acetamide]
AUC(0-t) [2, 4]: 347 ± 44 ng·h/mL | half-life [2, 4]: 17 ± 4.5 h | AUC(0-t) [2, 5]: 838 ± 96 ng·h/mL | Cmax [2, 5]: 67 ± 11 ng/mL | Tmax [2, 5]: 2.67 ± 1.15 h | bioavailability [2, 5]: 81 ± 12% | half-life [2, 5]: 12.8 ± 2.48 h | Ki [1]: 6.4 nM

Structure (SMILES): CC(C)N1CCC(Oc2ccc(NC(=O)CN3CCOCC3)cc2)CC1 [Example 22, N-[4-(1-Isopropylpiperidin-4-yloxy)-phenyl]-2-(morpholin-4-yl) acetamide]
AUCt [2, 7]: 340 ± 60 ng·h/mL | AUCt [2, 8]: 850 ± 61 ng·h/mL | Tmax [2, 8]: 0.42 ± 0.14 h | bioavailability [2, 9]: 85 ± 12% | Cmax [2, 5]: 376 ± 27 ng/mL | Inference (Male Wister rats; 1 mg/kg p.o.): Active | Exploration time mean ± S.E.M, Familiar object (Male Wister rats; 1 mg/kg p.o.): 7.12 ± 1.51 s | Exploration time mean ± S.E.M, Novel object (Male Wister rats; 1 mg/kg p.o.): 16.50 ± 2.37 s | Inhibition of food intake (rats): 60 mg/kg, p.o. | Ki [1]: 8.3 nM

Structure (SMILES): CC(C)N1CCCN(CC(=O)Nc2ccc(OC3CCN(C4CCC4)CC3)cc2)CC1 [Example 24, N-[4-(1-Cyclobutylpiperidin-4-yloxy)phenyl]-2-(4-isopropyl[1,4]diazepan-1-yl) acetamide]
Ki [1]: 1 nM

Structure (SMILES): O=C(CN1CCOC(CO)C1)Nc1ccc(OC2CCN(C3CCC3)CC2)cc1 (stereo not drawn) [Example 25, N-[4-(1-Cyclobutylpiperidin-4-yloxy)phenyl]-2-(2-hydroxymethylmorpholin-4-yl) acetamide]
Ki [1]: 4.05 nM

Structure (SMILES): O=C(CN1CCCCC1)Nc1ccc(OC2CCN(C3CCCC3)CC2)cc1 [Example 27, N-[4-(1-Cyclopentylpiperidin-4-yloxy)phenyl]-2-(piperidin-1-yl) acetamide dihydrochloride]
Ki [1]: 4.1 nM

Structure (SMILES): O=C(CN1CCCC1)Nc1ccc(OC2CCN(C3CCCC3)CC2)cc1 [Example 28, N-[4-(1-Cyclopentylpiperidin-4-yloxy)phenyl]-2-(pyrrolidin-1-yl) acetamide dihydrochloride]
Ki [1]: 3.8 nM

Structure (SMILES): O=C(CN1CCCCC1)Nc1ccc(OC2CCN(C3CCC3)CC2)cc1 [Example 29, N-[4-(1-Cyclobutylpiperidin-4-yloxy)phenyl]-2-(piperidin-1-yl) acetamide]
Ki [1]: 1.6 nM

Structure (SMILES): CC(=O)N1CCN(CC(=O)Nc2ccc(OC3CCN(C4CCC4)CC3)cc2)CC1 [Example 39, N-[4-(1-Cyclobutylpiperidin-4-yloxy)phenyl]-2-(1-acetylpiperazin-4-yl) acetamide]
Ki [1]: 5.39 nM

Now from value to molecule, other results behind:

Ki [1]: 6.4 nM
Structure (SMILES): O=C(CNc1ccc(OC2CCN(C3CCC3)CC2)cc1)N1CCOCC1 [Example 2, 2-[4-(1-Cyclobutylpiperidin-4-yloxy)phenylamino]-1-(morpholin-4-yl)ethanone hydrochloride]

AUC(0-t) [2, 4]: 173 ± 60 ng·h/mL | half-life [2, 4]: 0.56 ± 0.19 h | AUC(0-t) [2, 5]: 174 ± 43 ng·h/mL | Cmax [2, 5]: 129 ± 34 ng/mL | Tmax [2, 5]: 0.42 ± 0.14 h | bioavailability [2, 5]: 35 ± 5% | half-life [2, 5]: 1.46 ± 0.75 h | Kp [3]: 2.07 ± 0.07 | Ki [1]: 14.9 nM
Structure (SMILES): Cl.Cl.O=C(CN1CCOCC1)Nc1ccc(OC2CCN(C3CCC3)CC2)cc1F [Example 3, N-[4-(1-Cyclobutylpiperidin-4-yloxy)-2-fluorophenyl]-2-(morpholin-4-yl)acetamide dihydrochloride]
Inference (Male Wister rats; 3 mg/kg p.o.): Active | Exploration time mean ± S.E.M, Familiar object (Male Wister rats; 3 mg/kg p.o.): 6.77 ± 0.44 s | Exploration time mean ± S.E.M, Novel object (Male Wister rats; 3 mg/kg p.o.): 12.49 ± 1.59 s

Ki [1]: 4.9 nM
Structure (SMILES): CN(C(=O)CN1CCOCC1)c1ccc(OC2CCN(C3CCC3)CC2)cc1 [Example 14, N-[4-(1-Cyclobutylpiperidin-4-yloxy)phenyl]-N-methyl-2-(morpholin-4-yl) acetamide]

Ki [1]: 1.1 nM
Structure (SMILES): O=C(CN1CCCC1)Nc1ccc(OC2CCN(C3CCC3)CC2)cc1 [Example 21, N-[4-(1-Cyclobutylpiperidin-4-yloxy)-phenyl]-2-(pyrrolidin-1-yl) acetamide]
Inhibition of food intake (rats): ≧30 mg/kg, p.o.

AUCt [2, 7]: 338 ± 29 ng·h/mL | T1/2 [2, 7]: 1.13 ± 0.02 h | AUCt [2, 8]: 556 ± 111 ng·h/mL | Cmax [2, 8]: 389 ± 29 ng/mL | T1/2 [2, 8]: 1.23 ± 0.53 h | Tmax [2, 8]: 0.50 ± 0.00 h | bioavailability [2, 9]: 55 ± 10%
Structure (SMILES): O=C(CN1CCOCC1)Nc1ccc(OC2CCN(C3CC3)CC2)cc1 [Example 23, N-[4-(1-Cyclopropylpiperidin-4-yloxy)phenyl]-2-(morpholin-4-yl) acetamide]

Ki [1]: 6.7 nM
Structure (SMILES): O=C(CCN1CCOCC1)Nc1ccc(OC2CCN(C3CCC3)CC2)cc1 [Example 26, N-[4-(1-Cyclobutylpiperidin-4-yloxy)phenyl]-3-(morpholin-4-yl) propionamide]

Ki [1]: 6.6 nM
Structure (SMILES): CC(=O)N(CCN1CCOCC1)c1ccc(OC2CCN(C3CC3)CC2)cc1 [Example 38, N-[4-(1-Cyclopropylpiperidin-4-yloxy)phenyl]-N-[2-(morpholin-4-yl)ethyl] acetamide L(+) tartarate]
